“And” between values parts separate entries of the source, which are not always exact repeats. Equal values may be shown once. Read-outs that look alike come from different tables or passages of the source.
Assays:
[1] = target: T1, P450cam active site mutant Y96F (also C334A) (Pseudomonas putida, UniProt P00183, C335A/Y97F); assay type: biochemical, P. putida; conditions: for Products(%) Y96F: label = product
T1 construct: reconstituted with putidaredoxin and putidaredoxin reductase
Procedure: (§1) A buffered solution (50 mM Tris.HCI, pH 7.4), typically 3 ml in volume, containing 10 uM putidaredoxin, 2 uM putidaredoxin reductase, 1 uM cytochrome P-450cam mono-oxygenase (wild-type or mutant), 200 mM KCI, 50 ug/ml bovine liver catalase (Sigma), and 1 mM target organic compound such as cyclohexylbenzene (added as a 0.1 M stock in ethanol) was preincubated at 30° C. for 5 minutes. The enzymatic reaction was initiated by adding NADH to a total concentration of 2 mM. Further four aliquots of NADH (to increase the NADH concentration by 1 mM each time) were added in intervals of 10 minutes, and 30 minutes into the incubation one aliquot of substrate (to increase the concentration by 1 mM) was also added. The reaction was quenched after 60 minutes by adding 0.5 ml chloroform and vortexing the mixture. The phases were separated by centrifugation (4000 g) at 4° C. The chloroform layer was analyzed by gas chromatography.
(§2) For many substrate compounds such as cyclohexylbenzene for which not all the P-450cam-mediated oxidation products are commercially available, the chloroform extracts are evaporated to dryness under a stream of nitrogen. The residues were extracted with hexane and the oxidation products separated by high performance liquid chromatography, eluting with a hexane/isopropanol gradient. The purified products were then identified by mass spectroscopy and particularly nuclear magnetic resonance spectroscopy.
(§3) The NADH concentration can be monitored at 340 nm and, in all cases, more substrates and NADH are added during the incubation.

[2] = target: T2, P450cam active site mutant Y96L (also C334A) (Pseudomonas putida, UniProt P00183, C335A/Y97L); assay type: biochemical, P. putida; conditions: substrate cyclohexylbenzene; for Products (%) Y96L: label = product
T2 construct: reconstituted with putidaredoxin and putidaredoxin reductase
Procedure: as §1, §2, §3

[3] = target: T3, P450cam active site mutant Y96V (also C334A) (Pseudomonas putida, UniProt P00183, C335A/Y97V); assay type: biochemical, P. putida; conditions: substrate cyclohexylbenzene; for Products (%) Y96V: label = product
T3 construct: reconstituted with putidaredoxin and putidaredoxin reductase
Procedure: as §1, §2, §3

[4] = target: T4, P450cam active site mutant Y96A (also C334A) (Pseudomonas putida, UniProt P00183, C335A/Y97A); assay type: biochemical, P. putida; conditions: for Products(%) Y96A: label = product
T4 construct: reconstituted with putidaredoxin and putidaredoxin reductase
Procedure: as §1, §2, §3

P450cam WT = target: T5, P450cam WT (Pseudomonas putida, UniProt P00183); experiment: Product distribution following oxidation of substrates (GC); assay type: biochemical, P. putida; conditions: for Products (%) WT: label = product
T5 construct: reconstituted with putidaredoxin and putidaredoxin reductase
Procedure: as §1, §2, §3

[5] = target: T6, P450cam Y96A (also contains the C334A mutation) (Pseudomonas putida, UniProt P00183, C335A/Y97A); assay type: biochemical, P. putida; conditions: small alkanes
T6 construct: reconstituted with putidaredoxin and putidaredoxin reductase
Procedure: as §1, §3
(§4) Turnover rate measured as NADH consumption rate
(§5) (nmole NADH/nmole P450cam/s).

Wild type P450cam [6] = target: T7, Wild type P450cam (Pseudomonas putida, UniProt P00183); experiment: Turnover rate measured as NADH consumption rate; assay type: biochemical, P. putida; conditions: small alkanes; background about 0.07
Procedure: as §1, §3, §4, §5

P450cam Mutant Y96A = P450cam Mutant Y96A (Pseudomonas putida, UniProt P00183, C335A/Y97A); assay type: binding, P. putida
Wild type P450cam [7] = target: T7, Wild type P450cam; assay type: binding, P. putida; conditions: for Wild type ΔSpin high/low: -- = no shift, nd = not determined
[8] = Protein dimerisation by anion exchange FPLC and gel filtration; assay type: physicochemical; conditions: Resource Q FPLC and Superose 12 gel filtration; C334A even at high concentrations (0.1 mM range)
Excerpt: We concluded that wild-type P-450cam underwent dimerisation by intermolecular S--S disulphide bond formation between the surface cysteine 334 on two protein molecules.

[9] = Protein aggregation upon standing/storage; assay type: physicochemical; conditions: storage at 4° C., and even in 50% glycerol solutions at -20° C.
Excerpt: The C334A mutation has the obvious benefit of removing unwanted protein dimerisation, thus ensuring the presence of a single species in solution at all times. In addition, we noted a completely unexpected benefit of this mutation. […] Aggregation will also occur during turnover, especially at the higher P-450cam concentrations required in any economically viable industrial application in, for example, synthesis of organic molecules. […] Thus, the C334A mutation has beneficial effects in protein handling, storage, and increased catalyst lifetime.

[10] = -- = no shift, nd = not determined

P450cam Mutant Y96A, sequence (P00183 2-415 Y97A/C335A): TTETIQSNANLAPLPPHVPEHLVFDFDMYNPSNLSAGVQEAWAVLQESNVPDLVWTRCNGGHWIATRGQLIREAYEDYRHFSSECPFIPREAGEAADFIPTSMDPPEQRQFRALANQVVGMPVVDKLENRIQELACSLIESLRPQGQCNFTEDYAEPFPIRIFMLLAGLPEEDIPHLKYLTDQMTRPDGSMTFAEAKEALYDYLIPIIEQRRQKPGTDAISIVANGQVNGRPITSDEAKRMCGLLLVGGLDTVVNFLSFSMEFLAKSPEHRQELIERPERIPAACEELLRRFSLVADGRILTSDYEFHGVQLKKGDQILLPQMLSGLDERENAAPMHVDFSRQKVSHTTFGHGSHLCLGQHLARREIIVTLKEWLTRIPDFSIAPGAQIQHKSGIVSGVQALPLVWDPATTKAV
P450cam Mutant Y96A, sequence (P16640 whole entry, further chain): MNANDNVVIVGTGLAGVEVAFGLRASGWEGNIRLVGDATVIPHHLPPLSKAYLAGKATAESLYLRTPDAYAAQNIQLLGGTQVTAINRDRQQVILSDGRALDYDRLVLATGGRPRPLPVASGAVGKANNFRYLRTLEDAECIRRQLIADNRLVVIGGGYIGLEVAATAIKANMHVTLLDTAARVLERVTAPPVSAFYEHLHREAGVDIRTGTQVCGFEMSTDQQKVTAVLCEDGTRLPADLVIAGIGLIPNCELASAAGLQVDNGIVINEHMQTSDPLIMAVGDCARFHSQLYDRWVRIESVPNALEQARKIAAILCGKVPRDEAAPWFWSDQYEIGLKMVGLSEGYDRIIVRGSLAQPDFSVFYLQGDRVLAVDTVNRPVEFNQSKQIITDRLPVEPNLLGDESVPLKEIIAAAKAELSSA
P450cam Mutant Y96A, sequence (P00259 whole entry, further chain): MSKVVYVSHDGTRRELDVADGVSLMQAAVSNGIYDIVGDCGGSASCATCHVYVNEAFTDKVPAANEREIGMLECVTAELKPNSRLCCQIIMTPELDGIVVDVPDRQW
T6 sequence (P00183 2-415 Y97A/C335A): as the sequence (P00183 2-415 Y97A/C335A) above
T6 sequence (P16640 whole entry, further chain): as the sequence (P16640 whole entry, further chain) above
T6 sequence (P00259 whole entry, further chain): as the sequence (P00259 whole entry, further chain) above
T4 sequence (P00183 2-415 Y97A/C335A): as the sequence (P00183 2-415 Y97A/C335A) above
T4 sequence (P00259 whole entry, further chain): as the sequence (P00259 whole entry, further chain) above
T4 sequence (P16640 whole entry, further chain): as the sequence (P16640 whole entry, further chain) above
T7 sequence (P00183 whole entry): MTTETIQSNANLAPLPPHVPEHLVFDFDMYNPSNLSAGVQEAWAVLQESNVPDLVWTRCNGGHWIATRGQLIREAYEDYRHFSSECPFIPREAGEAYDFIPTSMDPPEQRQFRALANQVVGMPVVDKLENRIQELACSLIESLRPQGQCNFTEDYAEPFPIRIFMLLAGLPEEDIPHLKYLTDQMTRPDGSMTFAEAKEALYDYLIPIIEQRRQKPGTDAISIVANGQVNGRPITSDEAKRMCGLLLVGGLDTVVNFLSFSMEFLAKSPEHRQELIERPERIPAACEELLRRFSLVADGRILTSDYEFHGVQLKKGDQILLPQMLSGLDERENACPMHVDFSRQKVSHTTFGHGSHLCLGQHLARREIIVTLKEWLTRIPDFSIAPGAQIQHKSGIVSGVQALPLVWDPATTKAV
T7 sequence (P00259 whole entry, further chain): as the sequence (P00259 whole entry, further chain) above
T7 sequence (P16640 whole entry, further chain): as the sequence (P16640 whole entry, further chain) above
T2 sequence (P00183 2-415 Y97L/C335A): as the sequence (P00183 2-415 Y97A/C335A) above, with A96L counted along it
T2 sequence (P16640 whole entry, further chain): as the sequence (P16640 whole entry, further chain) above
T2 sequence (P00259 whole entry, further chain): as the sequence (P00259 whole entry, further chain) above
T5 sequence (P00259 whole entry): as the sequence (P00259 whole entry, further chain) above
T5 sequence (P16640 whole entry, further chain): as the sequence (P16640 whole entry, further chain) above
T5 sequence (P00183 whole entry): as the sequence (P00183 whole entry) above
T1 sequence (P16640 whole entry): as the sequence (P16640 whole entry, further chain) above
T1 sequence (P00183 2-415 Y97F/C335A): as the sequence (P00183 2-415 Y97A/C335A) above, with A96F counted along it
T1 sequence (P00259 whole entry, further chain): as the sequence (P00259 whole entry, further chain) above
T3 sequence (P00183 2-415 Y97V/C335A): as the sequence (P00183 2-415 Y97A/C335A) above, with A96V counted along it
T3 sequence (P00259 whole entry, further chain): as the sequence (P00259 whole entry, further chain) above
T3 sequence (P16640 whole entry, further chain): as the sequence (P16640 whole entry, further chain) above

Molecule: OC1CCCC(c2ccccc2)C1 (single isomer, unassigned) [3-ol]
- Products(%) Y96F ([1]; substrate cyclohexylbenzene): 54%
- Products (%) Y96L [2]: 38%
- Products (%) Y96V [3]: 28%
- Products(%) Y96A ([4]; substrate cyclohexylbenzene): 20%
- Products (%) WT (P450cam WT; substrate cyclohexylbenzene): 43%

Molecule: CCCCC(C)C [2-methyl hexane]
- Turnover rate (NADH consumption rate) Y96A [5]: 10.6 nmole NADH/nmole P450cam/s
- Relative activity (WT = 1) Y96F ([1]; substrate 2-methyl hexane): 2.3
- Relative activity (WT = 1) Y96A ([4]; substrate 2-methyl hexane): 2.6
- Turnover rate (NADH consumption rate) Wild type (Wild type P450cam [6]): background

Molecule: OC1C=C(c2ccccc2)CCC1 (stereo not drawn) [3-ol (B)]
- Products(%) Y96A ([4]; substrate phenylcyclohexene): 75%
- Products (%) WT (P450cam WT; substrate phenylcyclohexene): 76%

Molecule: O=C1C=C(c2ccccc2)CCC1 [3-one (A)]
- Products(%) Y96A ([4]; substrate phenylcyclohexene): 25%
- Products (%) WT (P450cam WT; substrate phenylcyclohexene): 24%

Molecule: O[C@H]1CC[C@@H](c2ccccc2)CC1 [Cis-4-ol]
- Products(%) Y96F ([1]; substrate cyclohexylbenzene): 13%
- Products (%) Y96L [2]: 16%
- Products (%) Y96V [3]: 23%
- Products(%) Y96A ([4]; substrate cyclohexylbenzene): 45%
- Products (%) WT (P450cam WT; substrate cyclohexylbenzene): 12%

Molecule: c1ccc(C2CCCCC2)cc1 [Cyclohexylbenzene]
- Mutant Y96A ΔSpin high/low (P450cam Mutant Y96A; [10]): 80
- Wild type Vs DTT (Wild type P450cam [7]): 20
- Wild type ΔSpin high/low (Wild type P450cam [7]): 20
- Total products Y96F ([1]; substrate cyclohexylbenzene): 1.1 area/10^5
- Total products Y96L [2]: 10.4 area/10^5
- Total products Y96V [3]: 12.5 area/10^5
- Total products Y96A ([4]; substrate cyclohexylbenzene): 7.4 area/10^5
- Total products WT (P450cam WT; substrate cyclohexylbenzene): 0.8 area/10^5

Molecule: CCCCCC [Hexane]
- Turnover rate (NADH consumption rate) Y96A [5]: 6.0 nmole NADH/nmole P450cam/s
- Mutant Y96A Vs DTT (P450cam Mutant Y96A): 60 and 40
- Mutant Y96A ΔSpin high/low (P450cam Mutant Y96A): 70 and 60
- Relative activity (WT = 1) Y96F ([1]; substrate hexane): 18.2
- Relative activity (WT = 1) Y96A ([4]; substrate hexane): 25.5
- Turnover rate (NADH consumption rate) Wild type (Wild type P450cam [6]): background

Molecule: OC1CCCC(c2ccccc2)C1 (stereo not drawn) [L or D 3-ol]
- Products(%) Y96F ([1]; substrate cyclohexylbenzene): 27%
- Products (%) Y96L [2]: 23%
- Products (%) Y96V [3]: 39%
- Products(%) Y96A ([4]; substrate cyclohexylbenzene): 20%
- Products (%) WT (P450cam WT; substrate cyclohexylbenzene): 20%

Molecule: O[C@H]1CC[C@H](c2ccccc2)CC1 [Trans-4-ol]
- Products(%) Y96F ([1]; substrate cyclohexylbenzene): 6%
- Products (%) Y96L [2]: 23%
- Products (%) Y96V [3]: 10%
- Products(%) Y96A ([4]; substrate cyclohexylbenzene): 15%
- Products (%) WT (P450cam WT; substrate cyclohexylbenzene): 25%

Molecule: CCCCCCC [n-Heptane]
- Turnover rate (NADH consumption rate) Y96A [5]: 4.4 nmole NADH/nmole P450cam/s
- Mutant Y96A Vs DTT (P450cam Mutant Y96A): 40
- Mutant Y96A ΔSpin high/low (P450cam Mutant Y96A; [10]): 60
- Wild type Vs DTT (Wild type P450cam [7]): 5
- Wild type ΔSpin high/low (Wild type P450cam [7]): 5
- Turnover rate (NADH consumption rate) Wild type (Wild type P450cam [6]): 2.7 nmole NADH/nmole P450cam/s

Molecule: CCCCCCCC [n-Octane]
- Turnover rate (NADH consumption rate) Y96A [5]: 5.8 nmole NADH/nmole P450cam/s
- Mutant Y96A Vs DTT (P450cam Mutant Y96A): 45
- Mutant Y96A ΔSpin high/low (P450cam Mutant Y96A; [10]): 80
- Wild type Vs DTT (Wild type P450cam [7]): 5
- Turnover rate (NADH consumption rate) Wild type (Wild type P450cam [6]): background

Molecule: CCCCC [n-Pentane]
- Turnover rate (NADH consumption rate) Y96A [5]: 5.8 nmole NADH/nmole P450cam/s
- Mutant Y96A Vs DTT (P450cam Mutant Y96A): 40
- Mutant Y96A ΔSpin high/low (P450cam Mutant Y96A; [10]): 55
- Wild type Vs DTT (Wild type P450cam [7]): 5
- Turnover rate (NADH consumption rate) Wild type (Wild type P450cam [6]): background

B1: wild-type P-450cam: mono-oxygenase cytochrome P-450cam from P. putida (protein, UniProt P00183 2-415, looked up)
Camphor 5-monooxygenase: TTETIQSNANLAPLPPHVPEHLVFDFDMYNPSNLSAGVQEAWAVLQESNVPDLVWTRCNGGHWIATRGQLIREAYEDYRHFSSECPFIPREAGEAYDFIPTSMDPPEQRQFRALANQVVGMPVVDKLENRIQELACSLIESLRPQGQCNFTEDYAEPFPIRIFMLLAGLPEEDIPHLKYLTDQMTRPDGSMTFAEAKEALYDYLIPIIEQRRQKPGTDAISIVANGQVNGRPITSDEAKRMCGLLLVGGLDTVVNFLSFSMEFLAKSPEHRQELIERPERIPAACEELLRRFSLVADGRILTSDYEFHGVQLKKGDQILLPQMLSGLDERENACPMHVDFSRQKVSHTTFGHGSHLCLGQHLARREIIVTLKEWLTRIPDFSIAPGAQIQHKSGIVSGVQALPLVWDPATTKAV
- presence of protein dimer [8]: dimer was detected
- dimerisation and aggregation upon storage [9]: dimerisation as well as aggregation

B2: C85A: P-450cam surface mutant, cysteine 85 substituted to alanine (protein, UniProt P00183 2-415, looked up, variant C85A)
Camphor 5-monooxygenase: TTETIQSNANLAPLPPHVPEHLVFDFDMYNPSNLSAGVQEAWAVLQESNVPDLVWTRCNGGHWIATRGQLIREAYEDYRHFSSEAPFIPREAGEAYDFIPTSMDPPEQRQFRALANQVVGMPVVDKLENRIQELACSLIESLRPQGQCNFTEDYAEPFPIRIFMLLAGLPEEDIPHLKYLTDQMTRPDGSMTFAEAKEALYDYLIPIIEQRRQKPGTDAISIVANGQVNGRPITSDEAKRMCGLLLVGGLDTVVNFLSFSMEFLAKSPEHRQELIERPERIPAACEELLRRFSLVADGRILTSDYEFHGVQLKKGDQILLPQMLSGLDERENACPMHVDFSRQKVSHTTFGHGSHLCLGQHLARREIIVTLKEWLTRIPDFSIAPGAQIQHKSGIVSGVQALPLVWDPATTKAV
- presence of protein dimer [8]: dimer was detected
- dimerisation and aggregation upon storage [9]: dimerisation as well as aggregation

B3: C58A: P-450cam surface mutant, cysteine 58 substituted to alanine (protein, UniProt P00183 2-415, looked up, variant C58A)
Camphor 5-monooxygenase: TTETIQSNANLAPLPPHVPEHLVFDFDMYNPSNLSAGVQEAWAVLQESNVPDLVWTRANGGHWIATRGQLIREAYEDYRHFSSECPFIPREAGEAYDFIPTSMDPPEQRQFRALANQVVGMPVVDKLENRIQELACSLIESLRPQGQCNFTEDYAEPFPIRIFMLLAGLPEEDIPHLKYLTDQMTRPDGSMTFAEAKEALYDYLIPIIEQRRQKPGTDAISIVANGQVNGRPITSDEAKRMCGLLLVGGLDTVVNFLSFSMEFLAKSPEHRQELIERPERIPAACEELLRRFSLVADGRILTSDYEFHGVQLKKGDQILLPQMLSGLDERENACPMHVDFSRQKVSHTTFGHGSHLCLGQHLARREIIVTLKEWLTRIPDFSIAPGAQIQHKSGIVSGVQALPLVWDPATTKAV
- presence of protein dimer [8]: dimer was detected
- dimerisation and aggregation upon storage [9]: dimerisation as well as aggregation

B4: C136A: P-450cam surface mutant, cysteine 136 substituted to alanine (protein, UniProt P00183 2-415, looked up, variant C136A)
Camphor 5-monooxygenase: TTETIQSNANLAPLPPHVPEHLVFDFDMYNPSNLSAGVQEAWAVLQESNVPDLVWTRCNGGHWIATRGQLIREAYEDYRHFSSECPFIPREAGEAYDFIPTSMDPPEQRQFRALANQVVGMPVVDKLENRIQELAASLIESLRPQGQCNFTEDYAEPFPIRIFMLLAGLPEEDIPHLKYLTDQMTRPDGSMTFAEAKEALYDYLIPIIEQRRQKPGTDAISIVANGQVNGRPITSDEAKRMCGLLLVGGLDTVVNFLSFSMEFLAKSPEHRQELIERPERIPAACEELLRRFSLVADGRILTSDYEFHGVQLKKGDQILLPQMLSGLDERENACPMHVDFSRQKVSHTTFGHGSHLCLGQHLARREIIVTLKEWLTRIPDFSIAPGAQIQHKSGIVSGVQALPLVWDPATTKAV
- presence of protein dimer [8]: dimer was detected
- dimerisation and aggregation upon storage [9]: dimerisation as well as aggregation
